From patent publication US5455240A, “Modulators of pneumococcal adhesion to cellular targets involving the platelet activating factor receptor, and uses thereof” (The Rockefeller University, priority 1994, dated 1995)

Experiments:
[1] = system: human vein endothelial cells (EC); test: Pneumococcal adherence to human vein endothelial cell monolayers, resting or TNFα-stimulated; format: cell-based; settings: for Number of pneumococci adherent to designated receptor on host cell: 2 mM sugar, adherence per 100 host cells without sugar minus with sugar; for pneumococcal adherence to resting EC in presence of antagonist: 1 μM antagonist, without antagonist 240 ±15
Description: (§1) FIG. 1. Adherence of pneumococci to cytokine-stimulated human cultured type II pneumocytes (A) and vascular endothelial cells (B). Monolayers in 60 well Terasaki dishes were stimulated with IL-1α (type II lung cells; 5 ng/ml, 4 h at 37° C.; Rozdzinski et al., 1993, J. Exp. Med. 178: 917) and TNFα (vascular endothelial cells; 10 ng/ml, 3 h at 37° C.; Elias et al., 1990, Am. J. Respir. Cell. Mol. Biol. 3: 13). Pneumococci R6 and AII were cultured for 18 h on trypticase soy agar containing 3% sheep blood, labelled with fluorescein isothiocyanate and adjusted to 10^5 -10^7 cfu/ml (Geelen et al., 1993, Infect. Immun. 61: 1538), and co-incubated with the monolayers. Control adherence in the absence of cytokine is indicated by a hatched line (-----). Bacteria adherent to cytokine-stimulated (.cndot.) and resting (.smallcircle.) monolayers were determined as the number of attached bacteria per 100 lung or endothelial cells. Results are the means ±SD for duplicate wells in at least six independent experiments.
(§2) FIG. 2. Effect of PAF receptor antagonists on pn[…] to IL-1α-stimulated cultured human type II lung cells (A) and TNFα-stimulated vascular endothelial cells (B). Cytokine stimulated monolayers were incubated (10 min, 37° C.) with either albumin buffer (--) or increasing concentrations of the PAF receptor antagonists L659,989 ( ) and WEB 2086 ( ) and R6 pneumococci (10^7 cfu/ml) allowed to adhere to the monolayers for 30 min at 37° C. Control adherence in the absence of cytokine stimulation is indicated by a horizontal dotted line (------). Adherent bacteria were determined as the number of attached bacteria per 100 lung or endothelial cells. Results are the means ±SD for duplicate wells in at least six independent experiments. *p<0.05 compared with cytokine-stimulation in the absence of antagonists.
(§3) The adherence of S. pneumoniae encapsulated strain AII (serotype 2) and the isogeneic unencapsulated strain R6 to human vein endothelial cells (EC) and type II lung epithelial cells (LC) was quantitated before and after stimulation of the eukaryotic cells with IL-1 or TNF. Adherence to EC was increased […] by TNFα stimulation (FIG. 1). […] (increase from 240 ±10 to 363 ±13 bacteria/100 EC; increase from 270 ±15 to 355 ±18 bacteria/100 LC). Adherence was not affected by the presence of a type II capsule. At an input concentration of 10^7 cfu/ml, adherence of AII and R6 to 100 TNFα-stimulated EC was 405 ±14 and 400 ±10, respectively.
(§4) The contribution of carbohydrate recognition to pn[…] to cytokine-stimulated EC and LC was tested using competition assays performed in the presence of monosaccharides (1-50 mM) or glycoconjugates (0.003-2 mM) the role of carbohydrate recognition in pn[…] is disclosed more fully in copending application Ser. No. 08/254,577, Attorney Docket No. 600-1-084, filed Jun. 6, 1994 by Tuomanen and Cundell, entitled "MODULATORS OF PN[…] TO PULMONARY AND VASCULAR CELLS AND DIAGNOSTIC AND THERAPEUTIC APPLICATIONS"; hereinafter Tuomanen and Cundell. Bacteria were pre-incubated for 15 min at room temperature with final concentrations of the sugars as stated, centrifuged (3,000 rpm, 3 min) to remove unbound sugar, resuspended to 1×10^7 cfu/ml in albumin buffer and added to the adherence assay. […] Adherence of bacteria lacking choline to activated cells in the presence and absence of GlcNAc was 121 ±11 and 119 ±5/100 EC and 137 ±7 and 135 ±13/100 LC, respectively.

[2] = system: type II lung epithelial cells (LC); test: Pneumococcal adherence to human type II lung epithelial cell monolayers, resting or IL-1α-stimulated; format: cell-based; settings: for Number of pneumococci adherent to designated receptor on host cell: 2 mM sugar, adherence per 100 host cells without sugar minus with sugar; for pneumococcal adherence to resting LC in presence of antagonist: 1 μM antagonist, without antagonist 270 ±10
Description: as §1, §2, §3, §4

PAF receptor [3] = molecular target: T1, PAF receptor (Homo sapiens, UniProt P25105); test: Pneumococcal adherence to U937 and COS-7 cells transfected with PAF receptor; format: cell-based; set-up: pneumococcal adherence; settings: for adherence of R6 to U937 cells in presence of glycoconjugate: PAF receptor-transfected U937, input 10^7 cfu/ml, 296 ±30 without glycoconjugates; for pneumococcal adherence to PAF receptor-transfected cells: transfected COS-7 and U937 cells, antagonists 1 μM (FIG. 3)
Description: FIG. 3. Effect on pneumococcal adherence to PAF receptors of receptor deglycosylation, the antagonists WEB 2086 and L659,989 (1 μM) and removal of phosphorylcholine from the pneumococcal cell wall (Tuomanen et al., 1985, J. Infect. Dis. 151: 859).
Recently, the PAF receptor was cloned from human leukocytes and successfully transfected into kidney epithelial cells (Kunz et al, supra). To determine if pneumococci could directly adhere to PAF receptors, human U937 cells (ATCC CRL1593; embryonic kidney epithelial cells stably transfected with the SV40 large T-antigen) and COS-7 cells (ATCC CRL 1651; monkey kidney) were transfected with the human PAF receptor cDNA (Gerard and Gerard, 1994, J. Immunol 152: 793) or the cDNA containing a Flag construct (Kunz et al., supra) by electroporation (Kunz et al., supra) or the addition of cationic liposomes (Gerard and Gerard, supra). […] Controls cells were transfected with vector alone. Monolayers of transfected and control cells were prepared in 60-well Terasaki dishes. Monolayers of COS-7 and U937 cells are prepared in 48-well culture dishes using the methods previously described for EC and LC (Geelen et al., 1993, Infect. Immun. 61: 1538).

[4] = system: type II lung cells and vascular endothelial cells; test: Pneumococcal adherence to EC and LC, results stated for both cell types together; format: cell-based, human; settings: for IC50: Homo sapiens, Endothelial cell, 0.5 h, activated cells (IL-1α-stimulated LC, TNFα-stimulated EC), R6 10^7 cfu/ml, 30 min, 37° C., read-out: ED50 of inhibition of pneumococcal adherence; for inhibition of adherence to resting cells by single sugars: resting EC and LC
Description: as §2
FIG. 4. Effect of simple sugars on adherence of R6 to resting and cytokine-stimulated human cultured type II pneumocytes (A) and vascular endothelial cells (B). R6 (10^7 cfu/ml) was exposed to various simple sugars (15 min, room temperature) and then co-incubated with either resting (.quadrature.) or cytokine-stimulated ( ) monolayers for 30 min. Pn[…] to a designated sugar was defined as bacterial adherence to 100 host cells in the absence of sugar-bacterial adherence to 100 host cells in the presence of sugar. Results are the means ±SD for duplicate wells in at least six independent experiments. Glc=D-glucose, Gal=D-galactose, Fuc=L-fucose, GalNAc=N-acetyl-D-galactosamine, GlcNAc=N-acetyl-D-glucosamine, Man=D-mannose, NANA=sialic acid, Lac=lactose and 2-ADGG=2-acetamido-2-deoxy-3-O-B-D-galactopyranosyl-D-galactopyranose.
as §4

PAF receptor [5] = molecular target: T1, PAF receptor; test: Activation of PAF receptor-transfected COS-7 cells, 3H incorporation in inositoltriphosphate (IP3); format: cell-based; set-up: IP3 (3H-inositol) response
Description: FIG. 6. Pneumococci activate the PAF receptor. COS cells in a monolayer were treated with control, platelet activating factor ([…]), pneumococci (10^8 bacteria/ml), ethanolamine-cultured pneumococci (10^8 bacteria/ml), PAF+L659,989, and pneumococci+L659,989. Activation was measured by detecting the level of incorporation of ^3 H in inositoltriphosphate, which is reported as the percentage above background .
Activation of COS-7 cells transfected with the PAF receptor was assayed. The cells were exposed to medium (control), platelet activating factor ([…]), pneumococci (10^8 bacteria/ml), and ethanolamine cultured pneumococci (10^8 bacteria/ml). Inhibition of activation by PAF and pneumococci with the PAF receptor antagonist L659,989 (2 μg/ml) was also measured. Cellular activation was measured by detecting incorporation of ^3 H in inositoltriphosphate (IP3).

PAF receptor [6] = molecular target: T1, PAF receptor; set-up: IP3 (3H-inositol) response; settings: Hwang and Lam, 1991; cited from earlier work
[7] = monosaccharides 1-50 mM (FIG. 4)

T1 sequence (P25105 whole entry): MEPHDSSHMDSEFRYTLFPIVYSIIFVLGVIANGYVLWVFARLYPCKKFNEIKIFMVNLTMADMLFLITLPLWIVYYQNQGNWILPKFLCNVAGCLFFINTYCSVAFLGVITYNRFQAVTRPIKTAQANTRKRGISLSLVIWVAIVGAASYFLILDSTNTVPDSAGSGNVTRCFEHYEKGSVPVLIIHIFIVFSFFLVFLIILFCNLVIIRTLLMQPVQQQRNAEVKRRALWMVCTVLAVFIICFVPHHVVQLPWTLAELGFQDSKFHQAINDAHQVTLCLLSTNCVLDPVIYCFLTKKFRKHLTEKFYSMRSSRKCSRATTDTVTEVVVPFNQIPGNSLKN

Molecule: asialo-GM2
- Number of pneumococci adherent to designated receptor on host cell ([1]; EC + TNFα, control 415 ± 25): 180 ± 13
- Number of pneumococci adherent to designated receptor on host cell ([1]; resting EC, control 240 ± 10): 140 ± 12
- Number of pneumococci adherent to designated receptor on host cell ([2]; LC + IL-1α, control 355 ± 18): 205 ± 9
- Number of pneumococci adherent to designated receptor on host cell ([2]; resting LC, control 270 ± 15): 140 ± 10
- adherence of R6 to U937 cells in presence of glycoconjugate (PAF receptor [3]): 327 ±39

Molecule: CCCOc1c(OC)cc([C@@H]2CC[C@@H](c3cc(OC)c(OC)c(OC)c3)O2)cc1S(C)(=O)=O (relative stereo) [L659,989]
- pneumococcal adherence to resting EC in presence of antagonist ([1]; resting EC): 237 ±9 bacteria/EC
- pneumococcal adherence to resting LC in presence of antagonist ([2]; resting LC): 272 ±8 bacteria
- IC50 [4]: 50 nM
- pneumococcal adherence to PAF receptor-transfected cells (PAF receptor [3]): inhibit pneumococcal adherence
- inhibition of PAF-mediated activation (PAF receptor [5]; L659,989 2 μg/ml, PAF 100 mM): almost completely inhibited
- inhibition of pneumococcal-mediated activation (PAF receptor [5]; L659,989 2 μg/ml, pneumococci 10^8 bacteria/ml): almost completely inhibited
- oral activity (PAF receptor [6]): orally active

Molecule: CC(=O)N[C@H]1C(O)O[C@H](CO)[C@@H](O)[C@@H]1O (stereo partly drawn) [GlcNAc, N-acetyl-D-glucosamine]
- adherence of bacteria lacking choline to activated EC in presence of sugar ([1]; ethanolamine-grown pneumococci, activated EC): 121 ±11 /100 EC
- adherence of bacteria lacking choline to activated LC in presence of sugar ([2]; ethanolamine-grown pneumococci, activated LC, 135 ±13 without sugar): 137 ±7 /100 LC
- inhibition of adherence to activated cells by single sugars ([4]; cytokine-stimulated EC and LC, monosaccharides 1-50 mM (FIG. 4)): became effective in activated cells
- decrease of pneumococcal adherence to transfected cells (PAF receptor [3]; transfected COS-7 and U937 cells (FIG. 3)): about 40%

Molecule: TNFα
- increase of pneumococcal adherence to EC by cytokine stimulation ([1]; TNFα 10 ng/ml, 3 h (FIG. 1)): ~ 70%

Molecule: CCCCCCCCCCCCCCCCOCC(COP(=O)([O-])OCC[N+](C)(C)C)OC(C)=O (centres unmarked) [PAF, platelet activating factor]
- pneumococcal adherence to PAF receptor-transfected cells (PAF receptor [3]): inhibit pneumococcal adherence
- 3H incorporation in IP3 (receptor activation) (PAF receptor [5]; PAF 100 mM, transfected COS-7 cells (FIG. 6)): significant ^3 H incorporation in IP3

Molecule: O=C[C@@H](O)[C@@H](O)[C@H](O)[C@H](O)CO [D-mannose]
- inhibition of adherence to resting cells by single sugars [4, 7]: effective in inhibiting adherence to resting cells

Molecule: globoside
- Number of pneumococci adherent to designated receptor on host cell ([1]; EC + TNFα, control 415 ± 25): 200 ± 9
- Number of pneumococci adherent to designated receptor on host cell ([1]; resting EC, control 240 ± 10): 110 ± 8
- Number of pneumococci adherent to designated receptor on host cell ([2]; LC + IL-1α, control 355 ± 18): 200 ± 11
- Number of pneumococci adherent to designated receptor on host cell ([2]; resting LC, control 270 ± 15): 140 ± 10
- adherence of R6 to U937 cells in presence of glycoconjugate (PAF receptor [3]): 318 ±30

Molecule: CC(=O)N[C@H]1C(O)O[C@H](CO)[C@H](O)[C@@H]1O (stereo partly drawn) [GalNAc, N-acetyl-D-galactosamine]
- inhibition of adherence to resting cells by single sugars [4, 7]: effective in inhibiting adherence to resting cells

Molecule: Cc1nnc2n1-c1sc(CCC(=O)N3CCOCC3)cc1C(c1ccccc1Cl)=NC2 [WEB 2086]
- pneumococcal adherence to resting EC in presence of antagonist ([1]; resting EC): 224 ±12 bacteria/EC
- pneumococcal adherence to resting LC in presence of antagonist ([2]; resting LC): 264 ±8 bacteria
- IC50 [4]: 10 nM
- pneumococcal adherence to PAF receptor-transfected cells (PAF receptor [3]): inhibit pneumococcal adherence

B1: IL-1: interleukin-1, cytokine used to stimulate cells (protein, UniProt P01583 113-271, looked up)
Interleukin-1 alpha: SAPFSFLSNVKYNFMRIIKYEFILNDALNQSIIRANDQYLTAAALHNLDEAVKFDMGAYKSSKDDAKITVILRISKTQLYVTAQDEDQPVLLKEMPEIPKTITGSETNLLFFWETHGTKNYFTSVAHPNLFIATKQDYWVCLAGGPPSITDFQILENQA
- pneumococcal adherence to EC after cytokine stimulation ([1]; IL-1 stimulation, resting 240 ±10): 363 ±13 bacteria/100 EC
- pneumococcal adherence to LC after cytokine stimulation ([2]; IL-1 stimulation, resting 270 ±15): 355 ±18 bacteria/100 LC
